Data set [1] is described as follows: Biodistribution and in vivo dynamic T1-weighted MRI. The arrangement: species or system A/J healthy mice. The following applies: 0.1 mmol Gd/kg i.v. Here is the method: Dynamic T 1‐weighted MRI on twelve A/J healthy mice was used to compare the biodistribution of ([Gd(ent‐L2)] and [Gd(BT‐DO3A)] (Gadovist), n = 6 animals each), administered at 0.1 mmol Gd/kg. The MRI monitored the distribution within abdominal tissues for up to 1 h post‐administration MRI images and the pharmacokinetic curves are shown in Figure 6 .
All the procedures and the experiments were conducted according to the national and international laws on experimental animal research (L.D. 26/2014; Directive 2010/63/EU) and under a specific Italian Ministerial Authorization (project research number 46/2015‐PR). Twelve A/J healthy mice (females, 6–7 weeks old, supplied by Envigo RMS S.r.l.) were housed in a controlled environment (22°C, 55% humidity, 15–20 air changes/hour, 12‐h light/dark cycle) with ad libitum access to VRF1 (P) certified pellets and filtered water. To minimize discomfort, the animals were socially housed with enrichment items. Veterinary care was available throughout the study to alleviate any potential pain or distress following procedures. […] The animals were randomly assigned to two experimental groups (n = 6 each, with sample size confirmed via GPower) and underwent to Magnetic Resonance Imaging (MRI) experiments performed using a BioSpec 47/30 preclinical scanner (Bruker Biospin, Ettlingen, Germany) operating at […] (i.e., at a proton Larmor frequency of 125 MHz) and equipped with two‐channel 35 mm RF volume coil. During MRI experiments, all the animals were anaesthetized with isoflurane gas (≈1%) in O2. Anaesthesia was maintained by adjustment of gas level as a function of breath rate. Before injection of each test article, T 1‐weighted spin echo sequences were acquired on the animal in order to check the position of the animal. A series of T 1‐weighted 3D gradient echoscans (repetition time = 50 ms, flip angle = 50°, echo time = 2.8 ms, number of averages = 2, matrix size (3D) = 192 × 192 × 8, field of view = 2.5 × 2.5 × 1.2 cm, acquisition time = 154 s) were then acquired before and after the intravenous administration of a 50 mM saline solution (0.9%) of [Gd(ent‐L2)] (n = 6 mice) and [Gd(BT‐DO3A)] (Gadovist, Bayer Schering, Germany) (n = 6 mice) at an injection rate of ≈2 mL/min through a catheter placed in the tail vein of the animal. Both [Gd(ent‐L2)] and [Gd(BT‐DO3A)] were administered at a dose of 0.1 mmol Gd/kg corresponding to an administration volume of 2 mL kg^−1. The kinetics of the Gd(III)‐complexes was followed up to 60 min post‐injection. After imaging was performed, the mouse was removed from the scanner and returned to the Animal Facility room. At the end of the study all animals were sacrificed by overdose of anaesthesia and cervical dislocation. Unblinded image analysis was performed by positioning the region of interest (ROIs) over liver, kidney, muscle, and blood vessel. ROIs positioning and signal quantification was performed by using a home‐developed plugin, running on Image J.^[ [51] ^]
Signal enhancement (Enh) was calculated using the formula: Enh = 100×(SignalpostCA ‐SignalpreCA)/SignalpreCA, where SignalpreCA and SignalpostCA denote the MR signal before and after administration of contrast agents, respectively. Data were presented as mean ± standard deviation (SD). The sample size (n = 6 per group) was determined a priori using GPower software to ensure adequate statistical power. The Levene's test was employed to assess the homogeneity of variances among groups. For comparisons where homogeneity of variance was confirmed, a one‐way ANalysis Of VAriance (ANOVA) was applied to test the null hypothesis that treatment groups originate from the same distribution. Post‐hoc pairwise multiple comparisons were performed using Tukey's method when significant differences were detected. Statistical analyses and data visualization were conducted using Mathematica (Wolfram, USA), while summary statistics (mean, SD, and standard error) were calculated using Microsoft Excel (USA). […]

The conditions of data set [2]: cited from earlier work.
The conditions of data set [3]: cited from earlier work. The source holds these as a separate data set.
The conditions of data set [4]: cited from earlier work. This is another data set of the same source.
The conditions of data set [5]: cited from earlier work. The source holds these as a separate data set.
The conditions of data set [6]: cited from earlier work; for pGd: [Gd^3+]tot = 1 µM, [L]tot = 10 µM; for pGd / logK^c GdL: pH 7.4, calculated from literature constants; for *logKGd(H2L): diprotonated out-of-cage intermediate.
For data set [7] the following is noted: 25 °C, cited from earlier work.
For data set [8] the following is noted: cited from earlier work; for ^298K r 1 [1.5 T] / r 1 ^310K [1.5 T]: water; for τ R: Table 2.
The nature of data set [9]: Relaxivity at 21 / 400 MHz and 25 °C in 0.15 M NaCl. The conditions noted are these: 400 MHz. In kind it is physicochemical. How it is done:
The relaxivity values were calculated from the longitudinal relaxation time of H2O protons (T 1) measured at 21 MHz on a Stelar relaxometer connected to a Bruker WP80 NMR electromagnet adapted to variable‐field measurements (15−80 MHz proton Larmor frequency). The temperature of the sample holder was controlled with a thermostatted air stream. The longitudinal relaxation time was measured with the “inversion recovery” method (180° – τ – 90°) by using 12 different τ values with typical 90° pulse width of 6.4 µs, 4 scans. The measurements were performed with 1 mM solution of the Gd(III)‐complexes with rac‐L1, ent‐L1, rac‐L2, and ent‐L2 ligands, so the relaxivity values were given as r 1 = […] where T 1p and T 1w were the relaxation time of bulk water protons in the presence and absence of paramagnetic species, respectively. The variable pH relaxivity measurements of Gd(III)‐complexes with rac‐L1, ent‐L1, rac‐L2, and ent‐L2 ligands could be carried out by direct titration of the samples in the pH range 2.5–9.0 (21 MHz, 25 °C, 0.15 M NaCl). The pH was adjusted by stepwise addition of concentrated NaOH or HCl solution.
The stability constant of Gd(III)‐complexes with rac‐L2 and ent‐L2 ligands were determined by the measurement of the proton relaxation rates (r 1) studying the competition reaction of rac‐L2 and ent‐L2 ligands with AAZTA for Gd(III) ion at pH = 4.0 in 0.15 M NaCl solution. In these experiments, the concentration of Gd^3+, rac‐L2, and ent‐L2 ligands was 2.0 mM, while that of the AAZTA was varied between 1.0 and 6.0 mM (5 × 1.5 mL samples). The pH was adjusted to pH 4.0 by stepwise addition of concentrated NaOH or HCl solutions. The samples were kept at 70 °C for a month and then at 25°C for two months in order to attain the equilibrium (the time needed to reach the equilibria was determined by ^1H‐NMR relaxometry). ^1H‐NMR relaxometric measurement of Gd(III) – rac‐L2 – AAZTA and Gd(III) – ent‐L2 – AAZTA systems were performed with a Bruker Avance III 400 (9.4 T) equipped with BB inverse z gradient probe (5 mm). The longitudinal relaxation time (T 1) was measured with the “inversion recovery” method (180° – τ – 90°) by using 12 different τ values with typical 90° pulse width of 12.0 µs, 4 scans at 298 K. The stability constants of [Gd(rac‐L2)] and [Gd(ent‐L2)] complexes were calculated by considering the protonation constants of AAZTA ligand and the stability constant of [Gd(AAZTA)]^− complex (AAZTA: logK 1 ^H = 10.06, logK 2 ^H = 6.50, logK 3 ^H = 3.77, logK 4 ^H = 2.33, logK 5 ^H = 1.51; [Gd(AAZTA)]^−: logK GdL = 18.93, 0.15 M NaCl, 25 °C).^[ [47] ^] The equilibrium constants were calculated with the program PSEQUAD.^[ [48] ^]

Each structure is given as a SMILES string. Read-outs that look alike come from different tables or passages of the source. Marks after values point to notes of the source that are not given here. A value given as a limit tells only on which side of the number the result lay.

As to `O=C([O-])CN1CCN(CC(=O)[O-])CCN(C(CO)C(O)CO)CCN(CC(=O)[O-])CC1.[Gd+3]` (stereo not shown) [[Gd(BT‐DO3A)], reference compound], in data set [1] (3 T, n = 6), the “average maximum signal enhancement in the liver” value is given as “≈ 110%”. The “wash-in and wash-out kinetics” value in data set [1] (up to 1 h post-administration) was “rapid wash‐in and wash‐out”. Moreover, the “decrease in signal enhancement in the blood compartment” value in [1] (within 30 min, 3 T) is recorded as at least 50%. Moreover, the k1 in data set [2] (25 °C) is 3.4e-05 M⁻¹ s⁻¹. In addition, the “k d at pH = 7.4” value in [2] (pH 7.4, 0.1 M NaCl, 25 °C) was 1.35×10^-12 s^−1.

Take `CC(O)CN1CCN(CC(=O)O)CCN(CC(=O)O)CCN(CC(=O)O)CC1` (stereo not shown) [HP‐DO3A]: the “logK CaL” value in data set [3] (0.1 M Me4NCl, 25 °C) is 14.83. The “logK ZnL” value in [4] (0.1 M Me4NCl, 25 °C) is reported as 19.37. In addition, in data set [4] (0.1 M Me4NCl), the logKZnHL is on record as 3.7. Besides, the “logK CuL” value in data set [5] (0.1 M Me4NCl, 25 °C) is 22.84. For the same molecule, in data set [5] (0.1 M Me4NCl), the logKCuH2L was 2.3 and the logKCuHL is 3.72. For the same molecule, in [6] (0.1 M Me4NCl, 25 °C), the “logK GdL” value is given as 23.8. Also, in data set [6] (0.1 M Me4NCl), the logKGdHL is on record as 1.10, the pGd is on record as 18.16 and the “logK^c GdL” value is listed as 17.21. Besides, in [6] (0.15 M NaCl, 25 °C), the logKGdLH-1 is 11.36^f) and the “*logKGd(H2L)” value is 5.10^f). In data set [7] (0.1 M Me4NCl), the “logK1^H” value is given as 11.96, the “logK2^H” value was 9.43, the “logK3^H” value is recorded as 4.30 and the “logK4^H” value was 3.26. Besides, the “ΣlogKi^H” value in [7] (0.1 M Me4NCl) is recorded as 28.95. In addition, in [2] (pH 7.4, 0.1 M NaCl, 25 °C), the “k d at pH = 7.4” value is given as 1.0 × 10^−11 s^−1. In addition, the “k d at pH = 7.4” value in data set [2] (pH 7.4, 0.15 M NaCl, 25 °C) is 1.2 × 10^−11 s^−1.

On to `O=C([O-])CN1CCN(CC(=O)[O-])CCN(CC(=O)[O-])CCN(CC(=O)[O-])CC1.[Gd+3]` [[Gd(DOTA)]^−], for which the k1 in data set [2] (0.15 M NaCl, 25 °C) was 1.8e-06 M⁻¹ s⁻¹. In addition, the “K^HGd(HL)” value in data set [2] (3.0 M NaClO4, 25 °C) is recorded as 14^d) M^-1. Also, the k1 in data set [2] (25 °C) was 8.4e-06 M⁻¹ s⁻¹. The “k d at pH = 7.4” value in [2] (pH 7.4, 0.15 M NaCl, 25 °C) is listed as 7.3×10^-14 s^−1. Also, the “k d at pH = 7.4” value in data set [2] (pH 7.4, 25 °C) is on record as 3.3×10^-14 s^−1. For the same molecule, the k0 in data set [2] (spontaneous dissociation, 0.15 M NaCl, 25 °C) is given as 6.7×10^-11 b) s^-1. Also, in data set [8], the “^298K r 1 [1.5 T]” value was 4.2 mM⁻¹ s⁻¹, the “r 1 ^310K [1.5 T]” value was 3.3 mM⁻¹ s⁻¹, the τ R was 90 ps and the q is given as 1. Also, in data set [8], the “τ M1” value was 208 ns.

With `O=C([O-])CN1CCN(CC(=O)[O-])Cc2cccc(n2)CN(CC(=O)[O-])CC1.[Gd+3]` [[Gd(PCTA)]], in data set [8], the “^298K r 1 [1.5 T]” value was 6.4 mM⁻¹ s⁻¹, the “r 1 ^310K [1.5 T]” value was 4.9 mM⁻¹ s⁻¹, the τ R was 63 ps and the q is recorded as 2. In addition, in data set [8], the “τ M1” value is reported as 151 ns and the “τ M2” value was 36 ns.

In data set [9], `CC1(N(CC(=O)[O-])CC(=O)[O-])CN(CC(=O)[O-])CCN(CC(=O)[O-])C1.[Gd+3]` [[Gd(AAZTA)]^−, reference compound] came in with a r1p of 6.56 ± 0.08 mM⁻¹ s⁻¹. The “logK GdL” value in data set [6] (0.15 M NaCl, 25 °C) is given as 18.93.

For `O=C(O)CN1CCN(CC(=O)O)Cc2cccc(n2)CN(CC(=O)O)CC1` [PCTA, 3,6,9,15‐tetraazabicyclo[9.3.1]pentadeca‐1(15),11,13‐triene‐3,6,9 triacetic acid], in [3] (1.0 M KCl), the “logK CaL” value is 12.72 and the logKCaHL was 3.79. In addition, in data set [4] (1.0 M KCl), the “logK ZnL” value is on record as 20.48 and the logKZnHL is listed as 3.10. Moreover, in [5] (1.0 M KCl), the “logK CuL” value is 18.79 and the logKCuHL is recorded as 3.58. Moreover, in data set [6] (1.0 M KCl), the “logK GdL” value is given as 20.39, the logKGdLH-1 is 11.10, the pGd is given as 17.11 and the “*logKGd(H2L)” value is reported as 3.12. In [6] (1.0 M KCl), the “logK^c GdL” value is 16.15. For the same molecule, in data set [7] (0.15 M NaCl), the “logK1^H” value was 9.97, the “logK2^H” value is given as 6.73, the “logK3^H” value is 3.22 and the “logK4^H” value is recorded as 1.40. In data set [7] (0.15 M NaCl), the “ΣlogKi^H” value is listed as 21.32. In data set [7] (1.0 M KCl), the “logK1^H” value is reported as 11.36, the “logK2^H” value is recorded as 7.35, the “logK3^H” value is 3.83 and the “logK4^H” value was 2.12. Further, in data set [7] (1.0 M KCl), the “ΣlogKi^H” value is reported as 25.95.

The record behind these values is paper PMC11984905, “Chiral Switch of Gadopiclenol: New Standards in MRI Probes” (Advanced Science, 2025).
